In this test the target is T1, 3-dehydroquinate synthase (Escherichia coli (strain K12), UniProt P07639).
T1 sequence (P07639 whole entry): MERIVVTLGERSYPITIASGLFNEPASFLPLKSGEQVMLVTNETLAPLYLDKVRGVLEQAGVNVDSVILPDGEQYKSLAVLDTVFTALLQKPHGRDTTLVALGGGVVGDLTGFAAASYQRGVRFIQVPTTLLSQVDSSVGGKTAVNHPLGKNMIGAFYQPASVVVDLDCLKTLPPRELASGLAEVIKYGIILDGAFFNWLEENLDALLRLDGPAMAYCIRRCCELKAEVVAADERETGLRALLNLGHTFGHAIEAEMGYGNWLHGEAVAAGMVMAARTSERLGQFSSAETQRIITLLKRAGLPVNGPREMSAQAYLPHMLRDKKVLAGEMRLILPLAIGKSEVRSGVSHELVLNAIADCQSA
Briefly: Enzyme Inhibition. The text has this: Enzyme inhibition using dehydroquinate synthase.

The Ki is a measure of affinity in units of concentration, obtained from inhibition or displacement. A lower Ki goes with higher affinity. In turn, `O=C(O)C1(O)CC(O)C(O)C(CP(=O)(O)O)O1` (configuration not stated) [2,4,5-trihydroxy-6-(phosphonatomethyl)oxane-2-carboxylate, 4] returned a Ki of 0.12 µM.

The compound `O=C(O)C1CC(O)C(O)C(CP(=O)(O)O)O1` (configuration not stated) [4,5-dihydroxy-6-(phosphonatomethyl)oxane-2-carboxylate, 3] showed a Ki of 35 µM.

The values are drawn from BindingDB's records for doi:10.1021/bi00445a011 (Harvard University, 1989).
